# Laboratory results reported in patent US20190070124A1, “COMPOSITIONS OF CB2 RECEPTOR SELECTIVE AGONISTS FOR TREATMENT OF MENTAL DISORDERS” (priority 2016, published 2019).
# Entries after “also recorded” stand apart in the source; their conditions may differ.
# Columns and labels:
# [1] = tested on: murine model of schizophrenia; experiment: Elevated Plus Maze test in the PCP mouse model; assay type: in vivo, mice
# Experimental: Anxiety as measured by the paucity of time spent on the two, anxiety-provoking, open arms (as opposed to the two enclosed arms) of an “Elevated Plus Maze” was used as a parameter of negative symptoms of schizophrenia (Josselyn and Vaccarino, 1998). The plus maze was elevated 50 cm above the table top. Behavior of each mouse was recorded for 5 min by a video camera and scored using the “EthoVision” software (Noldus Information Technology, Wageningen, The Netherlands), measuring the number of entries as well as the amount of time spent in each arm, open or closed. Increased time spent in the closed arms indicated increased anxiety. Increased time spent in the opened arms indicated anxiolytic behavior (reduced stress).
# [2] = tested on: murine model of schizophrenia; experiment: PhenoTyper cage behaviour in the PCP mouse model; assay type: in vivo, mice; details: BCP 5 mg/kg PND 43-61
# [3] = air exposed, after 5 weeks; cited from earlier work
# CYP2D6 = CYP2D6 (Homo sapiens, UniProt P10635); experiment: CYP450 enzymatic metabolism in human liver microsomes
# CYP2D6, sequence (P10635 whole entry): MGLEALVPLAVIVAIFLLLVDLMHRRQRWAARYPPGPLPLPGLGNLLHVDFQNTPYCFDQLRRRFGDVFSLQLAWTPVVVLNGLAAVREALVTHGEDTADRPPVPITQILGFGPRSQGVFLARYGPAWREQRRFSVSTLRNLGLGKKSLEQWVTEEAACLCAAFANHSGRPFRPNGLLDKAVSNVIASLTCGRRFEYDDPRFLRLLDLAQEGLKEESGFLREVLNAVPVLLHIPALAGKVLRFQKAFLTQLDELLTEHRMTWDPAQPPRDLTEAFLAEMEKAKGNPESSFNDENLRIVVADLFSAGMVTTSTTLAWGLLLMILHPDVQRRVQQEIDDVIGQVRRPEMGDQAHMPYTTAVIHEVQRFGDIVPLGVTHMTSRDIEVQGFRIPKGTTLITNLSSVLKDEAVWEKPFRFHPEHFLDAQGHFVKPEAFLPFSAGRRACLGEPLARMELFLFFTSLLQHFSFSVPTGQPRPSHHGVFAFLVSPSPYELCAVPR
# Experimental: CYP450 dependent activities were determined using a known substrate. […] A known inhibitor, such as quinidine, tested at a single concentration 3.00 μM was included as positive control. Incubation mixture containing human liver microsomes (0.1 mg/mL), substrate (5 μM) and standard inhibitor or test compound were warmed at 37 C for 10 minutes. Reactions were initiated by addition of the NADPH (1 mM) and the mixture was incubated for 20 minutes at 37° C. water bath. The organic solvent in the reaction mixture was DMSO. After incubation, ice cold acetonitrile was added to terminate the reaction. Generation of metabolite from the substrate reactions was determined by LC-MS/MS and assessed based on peak area ratios of analyte/IS. Mean was used to calculate the extent of inhibition (expressed as % of control activity).
# [4] = tested on: murine model of schizophrenia; experiment: Forced-swimming test in the PCP mouse model; assay type: in vivo, mice; details: PND 83; postnatal PCP 5 mg/kg; oral BCP 10 mg/kg twice a week, PND 43-62
# Experimental: BCP was diluted in canola oil. BCP (10 mg/kg diluted in canola oil) was administered to adolescent mice (PND 43-62) by gavage twice a week (on Sunday and Wednesday) for 3 weeks, a total of 6 gavages. Control group and PCP-induced group received by gavage the oil vehicle.
# Training was conducted for 6 min a day before the test. Each mouse was placed into a transparent glass cylinder filled with fresh water at 25° C. On the test day, the total duration/frequency of immobility and climbing was counted every 2 minutes for 6 minutes. An increased immobility is an index of learning and habituation, therefore a positive behavioral adaptation with a stressful condition.
# [5] = tested on: murine model of schizophrenia; experiment: Open-field test (ambulation, rearing, grooming) in the PCP mouse model
# Experimental: Mice were assessed for hyperactivity behavior on postnatal day 16 (FIG. 2). Mice were placed in the center of a transparent glass cube cage 30×40 X31 cm divided into squares of 7.5×7.5 cm. The number of squares and rearing activity were counted for 8 min.
# Mice were assessed for hyperactivity behavior on postnatal day 64-66. Mice were placed in the center of a transparent glass cube cage 30×40 X31 cm divided into squares of 7.5×7.5 cm. The number of squares and rearing activity were counted for 8 min.
# [6] = Body weight in the neonatal PCP mouse model of schizophrenia
# [7] = tested on: murine model of schizophrenia; experiment: Prepulse inhibition (PPI) of the startle reflex in the PCP mouse model; assay type: in vivo, mice
# Experimental: In this experimental model, a weak stimulus (74-90 dB tone) inhibited the subsequent response to a strong stimulus (120 dB tone). Reduced prepulse inhibition of the startle reflex (PPI) was taken as an index of the positive symptoms of schizophrenia (Josselyn and Vaccarino, 1998).
# PPI was assessed similarly to the method described by Varty et al. In the employed model, mice were placed in a startle chamber and allowed to acclimate for 5 min. A loudspeaker produced a 65 dB background white noise or the various acoustic pre-pulse stimuli (dB): 74, 78, 82, 86, and 90 (20 ms). A 120 dB (40 ms) stimulus was given first to induce a response to startle. The response of the mouse was transduced and stored by a computer. Each test session lasted for 11 min and consisted of 5 presentations of each of the trial types presented in random order and separated by 15 second intervals. The amount of prepulse inhibition was calculated as % PPI=[1−(startle response for prepulse+pulse)/(startle response for pulse alone)]×100.
# The % PPI indicates of level of disruption of the sensorimotor gating system in schizophrenia but also serves as an indicator of memory function. The % PPI after administration of PCP and treatment of BCP in the PPI test also serve as an index of memory function, further supporting the function of the sensorimotor system.
# [8] = age 13 weeks, postnatal BCP 10 mg/kg 1 h after PCP
# [9] = PND 91, females and males, postnatal PCP
# [10] = PND 17, BCP 10 mg/kg 1 h after PCP, ethanol-based vehicle
# [11] = PND 35-37, postnatal BCP 10 mg/kg 1 h after PCP
# [12] = PND 104, postnatal PCP, BCP 5 mg/kg PND 43-61
# [13] = PND 68, no PCP, BCP 5 mg/kg PND 43-61
# [14] = PND 68, postnatal PCP, BCP 5 mg/kg PND 43-61
# [15] = PND 106, postnatal PCP, BCP 5 mg/kg PND 43-61
# [16] = age 8 weeks, postnatal BCP 10 mg/kg 1 h after PCP
substance,measurement,setting,value
"trans-(1R,9S)-8-methylene-4,11,11trimethylbicyclo[7.2.0]undec-4-ene [BCP]",plus maze open/close or open/(close+open) duration and frequency,"[1]; PND 64, postnatal PCP, BCP 5 mg/kg PND 43-61",no effect at age 64; also recorded: did not reverse the effects of PCP in plus maze test
same,behavior in the open arm of the Elevated Plus Maze,"[1]; PND 110, postnatal PCP, BCP 5 mg/kg PND 43-61",significantly reversed the effects of PCP on behavior in the open arm of the Elevated Plus Maze
same,time spent in closed arm or open arm,"[1]; age 13 weeks, females and males, postnatal BCP 10 mg/kg 1 h after PCP",no significant change in the time spent in the closed arm or open arm
same,"time spent in distal end of the opened arm, females",[1]; [8],reversed this effect
same,"time spent in distal end of the opened arm, males",[1]; [8],reversed this effect
same,behavior in the close arm of the Elevated Plus Maze,"[1]; age 64 days, postnatal PCP, BCP 5 mg/kg PND 43-61",significantly reversed the effects of PCP on behavior in the close arm of the Elevated Plus Maze
same,frequency of entries to the wheel,[2]; [9],reversed the effects of PCP on the frequency of entries to the wheel in the Phenotyper cage both in females and males
same,time spent in the Hidden Zone,[2]; [9],reversed the effects of PCP on the time spend in the Hidden Zone of PhenoTyper cage in females and males; also recorded: reversed the effects of PCP on the time spent in the hidden zone
same,time spent at the drinking zone,"[2]; PND 91, compared with PCP-treated group",appeared to reduce the time spend at the drinking zone
same,"frequency of entries to the Hidden Zone, males","[2]; PND 91, postnatal PCP",reversed the effect of PCP in males
same,time spent in the food zone,"[2]; PND 91, postnatal PCP",did not affect the time spend in the food zone
same,frequency of entries to the Wheel Zone,"[2]; PND 105, postnatal PCP",appeared to reduce the effect of PCP on the frequency of entries to the Wheel Zone
same,frequency of entries to the hidden zone,"[2]; PND 105, postnatal PCP",reversed the effects of PCP on the frequency of entries to the hidden zone; also recorded: reversed the effect of PCP on frequency of entries to hidden zone
same,time spent at the hidden zone,"[2]; PND 105, postnatal PCP",reversed the effects of PCP on the time spend at the hidden zone; also recorded: reversed the effect of PCP on time spent at the hidden zone
same,time spent in the wheel zone,"[2]; PND 105, postnatal PCP",showed a trend to reverse the effect of PCP on the time spend in the wheel; also recorded: not the time spent in the wheel zone
same,original compound consumed by autoxidation,[3],~50%
same,risperidone-induced inhibition of CYP2D6 in the presence of BCP,"CYP2D6; BCP combined with risperidone at a fixed concentration equivalent to IC50, human liver microsomes",significantly reduced the risperidone-induced inhibition of CYP2D6; also recorded: blocked the effect of risperidone and restored the activity of CYP2D6 enzyme
same,inhibitory effect on CYP2D6,CYP2D6; human liver microsomes,0-20 % inhibition
same,inhibition of CYP2D6 enzymatic activity,"CYP2D6; human liver microsomes 0.1 mg/mL, 20 min, 37 C",slightly inhibited CYP2D6
same,"duration of immobility in the forced swim test, male mice",[4],reversed the effect of 5 mg/kg PCP on the duration of immobility of male mice in the forced swim test; also recorded: reversed the effect of PCP on mice in the open field test (29A) and in the forced swim test
same,open-field rearing and exploration,"[5]; PND 17, male mice, BCP 10 mg/kg 1 h after each PCP 5 mg/kg injection (Cremophor EL:DMSO:saline)",reversed the effects of PCP on rearing and exploration
same,open-field ambulation and rearing,"[5]; PND 17, males, BCP 10 mg/kg 1 h after PCP, DMSO-based carrier",completely reversed the effects of PCP on ambulation
same,"open-field ambulation and rearing, females",[5]; [10],reversed a proportion of the effects of PCP on ambulation and rearing behavior of female mice
same,"open-field locomotor activity, males",[5]; [10],appeared to be less sensitive to the treatment of PCP or PCP+BCP
same,open-field rearing and exploration,[5]; [10],reversed the effects of PCP on rearing and exploration
same,"open-field locomotor activity (ambulation), males",[5]; [11],reduced locomotor activity; also recorded: significantly reversed the effect of PCP in males
same,"open-field rearing and exploration, females",[5]; [11],no differences in rearing and exploration behaviors were seen between the different groups
same,"open-field rearing, males",[5]; [11],significantly reduced rearing behavior as compared to vehicle and PCP-treated groups
same,open-field rearing,"[5]; PND 63, females and males, postnatal PCP, BCP 5 mg/kg injected twice a week PND 43-61",reversed the effect of PCP on rearing in both females and males
same,open-field ambulation,"[5]; PND 63, male and female, postnatal PCP, BCP 5 mg/kg injected twice a week PND 43-61",significantly reversed the effect of postnatal treatment of PCP on ambulation in male and female mice at PND 63
same,open-field exploration compared with saline-treated mice,"[5]; PND 63, BCP 5 mg/kg injected twice a week PND 43-61",significantly inhibited the exploration of mice compared with saline-treated mice
same,"open-field exploratory behavior, females","[5]; PND 104 (last BCP treatment PND 61), postnatal PCP, BCP 5 mg/kg PND 43-61",relapse in exploratory behavior was evident
same,"self-grooming (total, without stimuli)","[5]; PND 104, females or males, postnatal PCP, BCP 5 mg/kg PND 43-61",did not reverse the effect of PCP on self-grooming; also recorded: did not reverse the effect of PCT on grooming at PND104
same,"open-field rearing (and exploration), males",[5]; [12],still significantly higher than that of PCP-treated mice with no BCP treatment; also recorded: improved exploration and rearing behaviors of male PCP treated mice at PND 104
same,"activity in the open field test, female mice","[5]; postnatal PCP 5 mg/kg, BCP 10 mg/kg in canola oil by gavage twice a week, PND 43-62",reversed the effect of 5 mg/kg PCP on activity of female mice in the open field test
same,body weight at PND 17,"[6]; BCP 10 mg/kg 1 h after PCP, ethanol-based vehicle, PCP+BCP vs PCP",no significant difference between groups treated with PCP with or without BCP
same,body weight,"[6]; BCP 10 mg/kg 1 h after PCP, postnatal, DMSO-based vehicle",completely reversed the effect of PCP on body weight
same,body weight,"[6]; BCP 10 mg/kg injected 1 h after each PCP 5 mg/kg dose, PND 3-16, Cremophor EL:ethanol:saline vehicle, weight PND 3-17",significantly reversed the inhibitory effect of PCP on body weight; also recorded: reversed the reduction in body weight during the first week of life; also recorded: did not restore the weight completely
same,"effect on PCP-induced reduction of body weight, males",[6]; [10],appeared to be more prominent
same,"body weight, females",[6]; [11],significantly reversed the effect of PCP on female body weight
same,"body weight, males",[6]; [11],no significant difference in male body weight between the groups
same,body weight,[6]; [12],"did not increase body weight in females and males, rather reduced body weight of PCP+BCP treated group"
same,body weight of adolescent mice,"[6]; postnatal PCP, BCP 5 mg/kg injected twice a week PND 43-61 (DMSO:Cremophor EL:saline)",did not affect body weight of adolescent mice
same,"body weight, male mice","[6]; postnatal day 83, oral BCP 10 mg/kg twice a week, PND 43-62",did not affect body weight of male mice at postnatal day 83; also recorded: did not affect their body weight
same,pre-pulse inhibition in saline-treated mice,[7]; [13],no substantial effect on saline-treated mice
same,response to pre-pulse tones in saline-treated mice,[7]; [13],no effect on saline-treated mice
same,response to pre-pulse tones,[7]; [14],significantly reversed the effect of PCP on response to pre-pulse tones; also recorded: reversed the effect of PCP on the response to tone
same,startle response at the end of the PPI test,[7]; [14],did not affect the response to startle at the end of the PPI test
same,"startle response, females",[7]; [14],significantly reversed the effect of PCP on startle response in females
same,"startle response, males",[7]; [14],no difference in the response to the startle stimuli between groups
same,pre-pulse inhibition (% PPI),"[7]; PND 68, postnatal PCP, BCP 5 mg/kg injected twice a week PND 43-61",significantly reversed the effect of PCP on pre-pulse inhibition; also recorded: reversed the effect of PCP on PPI
same,% pre-pulse inhibition (PPI),[7]; [15],reversed the effect of PCP on the % pre-pulse inhibition (PPI); also recorded: reversed the effect of PCP on attention at PND106 (PPI test)
same,response to the startle stimuli (120 dB),[7]; [15],no difference in the response to the startle stimuli (120 dB) between groups
same,response to tones,[7]; [15],reversed the effect of PCP on the response to tones
same,response to startle stimuli,"[7]; age 8 weeks, males and females, postnatal BCP 10 mg/kg 1 h after PCP",not significantly different between groups
same,"% prepulse inhibition, females",[7]; [16],No significant difference
same,"% prepulse inhibition, males",[7]; [16],reversed this effect; also recorded: significantly reversed the effect of PCP on the sensorimotor-gate in males
